# Laboratory results published in US10669290B2, “Beta-lactamase inhibitors” (priority 2012, dated 2020).
# How the values were obtained:
# Type in all cases: cell-based
# [1] = tested on: E. coli ESBL4 CTX-M-15; experiment: Broth microdilution MIC, E. coli ESBL4; settings: Escherichia coli, ESBL4CTXM15; fixed ceftazidime 4 μg/mL, CAMHB, 16-20 hours 37° C.; read-out: MIC of exemplary compounds in presence of fixed β-lactams, Fixed CAZ, E. coli ESBL4 CTX-M-15
# How it was run: (§1)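 Strains grew 3-5 hours in CAMHB before use. Serial 2-fold compound dilutions (final 32 to 0.25 μg/mL) were overlaid with β-lactam at a constant 4 μg/ml, inoculated following CLSI, then incubated 16-20 h at 37° C before visual MIC determination.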
# [2] = tested on: E. cl 144200 p99 AmpC; experiment: Broth microdilution MIC, E. cloacae 144200; settings: Enterobacter cloacae; fixed ceftazidime 4 μg/mL, CAMHB, 16-20 hours 37° C.; read-out: MIC of exemplary compounds in presence of fixed β-lactams, Fixed CAZ, E. cl 144200 p99 AmpC
# How it was run: as §1
# [3] = tested on: K.P. 156319 KPC-3; experiment: Broth microdilution MIC, K. pneumoniae 156319; settings: Klebsiella pneumoniae; fixed meropenem 4 μg/mL, CAMHB, 16-20 hours 37° C.; read-out: MIC of exemplary compounds in presence of fixed β-lactams, Fixed Mero, K.P. 156319 KPC-3
# [4] = tested on: P. aerug. Ps296 VIM-2; experiment: Broth microdilution MIC, P. aeruginosa Ps296; settings: Pseudomonas aeruginosa; fixed meropenem 4 μg/mL, CAMHB, 16-20 hours 37° C.; read-out: MIC of exemplary compounds in presence of fixed β-lactams, Fixed Mero, P. aerug. Ps296 VIM-2
# How it was run: as §1
# [5] = tested on: K.P. A-1797 KPC-2 VIM-4; experiment: Broth microdilution MIC, K. pneumoniae A-1797; settings: Klebsiella pneumoniae; fixed meropenem 4 μg/mL, CAMHB, 16-20 hours 37° C.; read-out: MIC of exemplary compounds in presence of fixed β-lactams, Fixed Mero, K.P. A-1797 KPC-2 VIM-4
# [6] = tested on: S. aureus MSSA-7 PC-1; experiment: Broth microdilution MIC, S. aureus MSSA-7; settings: Staphylococcus aureus, fixed piperacillin 4 μg/mL, CAMHB, 16-20 hours 37° C., read-out: MIC of exemplary compounds in presence of fixed β-lactams, Fixed Pip, S. aureus MSSA-7 PC-1
MIC [1] [µg/mL],MIC [2] [µg/mL],MIC [3] [µg/mL],MIC [4] [µg/mL],MIC [5] [µg/mL],MIC [6] [µg/mL],SMILES
< 4,< 4,< 4,< 4,< 4,< 4,"NCCCN[C@H]1CC[C@H](CC(=O)N[C@H]2Cc3cccc(C(=O)O)c3OB2O)CC1 [Example 60, (R)-3-(2-(trans-4-(3-aminopropylamino)cyclohexyl)acetamido)-2-hydroxy-3,4-dihydro-2H-benzo[e][1,2]oxaborinine-8-carboxylic acid]"
< 4,< 4,< 4,< 4,< 4,< 4,"O=C(C[C@H]1CC[C@H](NCCNCCO)CC1)N[C@H]1Cc2cccc(C(=O)O)c2OB1O [Example 61, (R)-2-hydroxy-3-(2-(trans-4-(2-(2-hydroxyethylamino)ethylamino)cyclohexyl)acetamido)-3,4-dihydro-2H-benzo[e][1,2]oxaborinine-8-carboxylic acid]"
< 4,< 4,< 4,8 to 32,< 4,< 4,"C[C@H](N)CNCCN[C@H]1CC[C@H](CC(=O)N[C@H]2Cc3cccc(C(=O)O)c3OB2O)CC1 [Example 62, (R)-3-(2-(trans-4-(2-((S)-2-aminopropylamino)ethylamino)cyclohexyl)acetamido)-2-hydroxy-3,4-dihydro-2H-benzo[e][1,2]oxaborinine-8-carboxylic acid]"
< 4,< 4,< 4,< 4,< 4,< 4,"CN(CCN)[C@H]1CC[C@H](CC(=O)N[C@H]2Cc3cccc(C(=O)O)c3OB2O)CC1 [Example 63, (R)-3-(2-(trans-4-((2-aminoethyl)(methyl)amino)cyclohexyl)acetamido)-2-hydroxy-3,4-dihydro-2H-benzo[e][1,2]oxaborinine-8-carboxylic acid]"
< 4,< 4,< 4,< 4,< 4,< 4,"CNCCN[C@H]1CC[C@H](C(CO)C(=O)N[C@H]2Cc3cccc(C(=O)O)c3OB2O)CC1 (stereo partly drawn) [Example 64, (R)-2-hydroxy-3-(3-hydroxy-2-(trans-4-(2-(methylamino)ethylamino)cyclohexyl)propanamido)-3,4-dihydro-2H-benzo[e][1,2]oxaborinine-8-carboxylic acid]"
< 4,< 4,< 4,8 to 32,< 4,< 4,"N[C@@H](CO)CN[C@H]1CC[C@H](CC(=O)N[C@H]2Cc3cccc(C(=O)O)c3OB2O)CC1 [Example 65, (R)-3-(2-(trans-4-((R)-2-amino-3-hydroxypropylamino)cyclohexyl)acetamido)-2-hydroxy-3,4-dihydro-2H-benzol[e][1,2]oxaborinine-8-carboxylic acid]"
< 4,< 4,< 4,8 to 32,8 to 32,< 4,"CSCCN[C@H]1CC[C@H](CC(=O)N[C@H]2Cc3cccc(C(=O)O)c3OB2O)CC1 [Example 66, (R)-2-hydroxy-3-(2-(trans-4-(2-(methylthio)ethylamino)cyclohexyl)acetamido)-3,4-dihydro-2H-benzo[e][1,2]oxaborinine-8-carboxylic acid]"
< 4,< 4,< 4,< 4,< 4,< 4,"N[C@H](CO)CN[C@H]1CC[C@H](CC(=O)N[C@H]2Cc3cccc(C(=O)O)c3OB2O)CC1 [Example 67, (R)-3-(2-(trans-4-((S)-2-amino-3-hydroxypropylamino)cyclohexyl)acetamido)-2-hydroxy-3,4-dihydro-2H-benzol[e][1,2]oxaborinine-8-carboxylic acid]"
< 4,< 4,< 4,8 to 32,8 to 32,< 4,"NCC(=O)N[C@H]1CC[C@H](CC(=O)N[C@H]2Cc3cccc(C(=O)O)c3OB2O)CC1 [Example 68, (R)-3-(2-(trans-4-(2-aminoacetamido)cyclohexyl)acetamido)-2-hydroxy-3,4-dihydro-2H-benzol[e][1,2]oxaborinine-8-carboxylic acid]"
< 4,< 4,< 4,< 4,> 32,< 4,"O=C(C[C@H]1CC[C@H](N(Cc2ncc[nH]2)Cc2ncc[nH]2)CC1)N[C@H]1Cc2cccc(C(=O)O)c2OB1O [Example 69, (R)-3-(2-(trans-4-(bis((1H-imidazol-2-yl)methyl)amino)cyclohexyl)acetamido)-2-hydroxy-3,4-dihydro-2H-benzo[e][1,2]oxaborinine-8-carboxylic acid]"
< 4,< 4,< 4,< 4,8 to 32,< 4,"O=C(C[C@H]1CC[C@H](NCc2cnc[nH]2)CC1)N[C@H]1Cc2cccc(C(=O)O)c2OB1O [Example 70, (R)-3-(2-(trans-4-((1H-imidazol-5-yl)methylamino)cyclohexyl)acetamido)-2-hydroxy-3,4-dihydro-2H-benzo[e][1,2]oxaborinine-8-carboxylic acid]"
< 4,< 4,< 4,< 4,< 4,< 4,"CC(C)NCCN[C@H]1CC[C@H](CC(=O)N[C@H]2Cc3cccc(C(=O)O)c3OB2O)CC1 [Example 71, (R)-2-hydroxy-3-(2-(trans-4-(2-(isopropylamino)ethylamino)cyclohexyl)acetamido)-3,4-dihydro-2H-benzo[e][1,2]oxaborinine-8-carboxylic acid]"
< 4,< 4,< 4,< 4,8 to 32,< 4,O=C(C[C@H]1CC[C@H](NCCNc2ncccn2)CC1)N[C@H]1Cc2cccc(C(=O)O)c2OB1O [Example 72]
< 4,< 4,< 4,< 4,< 4,< 4,"O=C(C[C@H]1CC[C@H](NCCNC2CCCC2)CC1)N[C@H]1Cc2cccc(C(=O)O)c2OB1O [Example 73, (R)-3-(2-(trans-4-(2-(cyclopentylamino)ethylamino)cyclohexyl)acetamido)-2-hydroxy-3,4-dihydro-2H-benzo[e][1,2]oxaborinine-8-carboxylic acid]"
< 4,< 4,< 4,< 4,< 4,< 4,"O=C(C[C@H]1CC[C@H](NCCNCC2CC2)CC1)N[C@H]1Cc2cccc(C(=O)O)c2OB1O [Example 74, (R)-3-(2-(trans-4-(2-(cyclopropylmethylamino)ethylamino)cyclohexyl)acetamido)-2-hydroxy-3,4-dihydro-2H-benzo[e][1,2]oxaborinine-8-carboxylic acid]"
< 4,< 4,< 4,< 4,< 4,< 4,"O=C(C[C@H]1CC[C@H](NCCN(CC2CC2)CC2CC2)CC1)N[C@H]1Cc2cccc(C(=O)O)c2OB1O [Example 75, (R)-3-(2-(trans-4-(2-(bis(cyclopropylmethyl)amino)ethylamino)cyclohexyl)acetamido)-2-hydroxy-3,4-dihydro-2H-benzo[e][1,2]oxaborinine-8-carboxylic acid]"
< 4,< 4,< 4,8 to 32,< 4,< 4,"NCCC(N)[C@H]1CC[C@H](CC(=O)N[C@H]2Cc3cccc(C(=O)O)c3OB2O)CC1 (stereo partly drawn) [Example 76, (R)-3-(2-(trans-4-(1,3-diaminopropyl)cyclohexyl)acetamido)-2-hydroxy-3,4-dihydro-2H-benzo[e][1,2]oxaborinine-8-carboxylic acid]"
< 4,< 4,< 4,< 4,8 to 32,< 4,"NCC(N)[C@H]1CC[C@H](CC(=O)N[C@H]2Cc3cccc(C(=O)O)c3OB2O)CC1 (stereo partly drawn) [Example 77, (R)-3-(2-(trans-4-(1,2-diaminoethyl)cyclohexyl)acetamido)-2-hydroxy-3,4-dihydro-2H-benzo[e][1,2]oxaborinine-8-carboxylic acid]"
< 4,< 4,< 4,< 4,< 4,< 4,"CCNCCN[C@H]1CC[C@H](CC(=O)N[C@H]2Cc3cccc(C(=O)O)c3OB2O)CC1 [Example 78, (R)-3-(2-(trans-4-(2-(ethylamino)ethylamino)cyclohexyl)acetamido)-2-hydroxy-3,4-dihydro-2H-benzo[e][1,2]oxaborinine-8-carboxylic acid]"
